Measured values: the NIST ThermoML archive (doi:10.1016/j.jct.2018.11.014)

Test: molar heat capacity at constant pressure
Conditions: 101.33 kPa, Crystal, Vacuum adiabatic calorimetry

O=C(CO)[C@@H](O)[C@@H](O)[C@H](O)CO [D-(-)-tagatose]
Conditions	molar heat capacity at constant pressure [J/K/mol]
10 K	0.94
14.02 K	2.674
14.41 K	2.87
14.81 K	3.123
15.25 K	3.307
15.73 K	3.601
16.23 K	3.917
16.72 K	4.241
17.21 K	4.591
17.74 K	4.922
18.26 K	5.33
18.79 K	5.733
19.32 K	6.103
19.88 K	6.523
20 K	6.61
20.46 K	6.946
21.02 K	7.413
21.59 K	7.933
22.17 K	8.327
22.74 K	8.872
23.29 K	9.326
23.86 K	9.837
24.43 K	10.34
24.96 K	10.79
25.5 K	11.35
26.05 K	11.75
26.63 K	12.36
27.21 K	12.84
27.8 K	13.39
28.43 K	14.04
29.08 K	14.61
29.7 K	15.2
30 K	15.48
30.32 K	15.75
30.93 K	16.36
31.54 K	16.95
32.18 K	17.49
32.85 K	18.2
33.51 K	18.79
34.17 K	19.45
34.85 K	20.14
35.56 K	20.8
36.25 K	21.42
36.92 K	22.12
37.6 K	22.72
38.32 K	23.45
39.06 K	24.19
39.8 K	24.86
40 K	25.07
40.56 K	25.59
41.34 K	26.39
42.12 K	27.17
42.9 K	27.84
43.73 K	28.66
44.59 K	29.45
45.47 K	30.31
46.33 K	31.15
47.17 K	31.93
48.01 K	32.72
48.86 K	33.49
49.73 K	34.49
50 K	34.58
50.59 K	35.1
51.44 K	35.9
52.28 K	36.7
53.12 K	37.43
53.94 K	38.19
54.73 K	38.96
55.51 K	39.6
56.29 K	40.34
57.09 K	41.06
57.89 K	41.8
58.7 K	42.51
59.51 K	43.28
60 K	43.72
60.35 K	44.06
61.19 K	44.77
62.02 K	45.55
62.84 K	46.28
63.66 K	46.99
64.47 K	47.71
65.28 K	48.44
66.09 K	49.12
66.9 K	49.84
67.72 K	50.53
68.52 K	51.3
69.3 K	51.99
70 K	52.55
70.08 K	52.63
70.85 K	53.29
71.66 K	54
72.51 K	54.75
73.34 K	55.43
74.17 K	56.15
74.99 K	56.78
75.84 K	57.55
76.73 K	58.37
77.61 K	59.05
78.48 K	59.83
79.34 K	60.58
80 K	61.11
80.24 K	61.32
81.18 K	62.13
82.13 K	62.93
83.07 K	63.68
84.01 K	64.47
85 K	65.34
86.03 K	66.11
87.06 K	66.91
88.1 K	67.79
89.12 K	68.69
90 K	69.42
90.18 K	69.57
91.27 K	70.49
92.35 K	71.33
93.42 K	72.22
94.47 K	73.05
95.56 K	73.96
96.68 K	74.84
97.79 K	75.75
98.88 K	76.69
99.96 K	77.46
100 K	77.52
101.1 K	78.37
102.28 K	79.32
103.46 K	80.27
104.64 K	81.16
105.83 K	82.14
107.05 K	83.09
108.3 K	84.09
109.54 K	85.07
110 K	85.43
110.79 K	86.05
112.05 K	87.01
113.37 K	88.06
114.74 K	89.11
116.09 K	90.16
117.44 K	91.23
118.77 K	92.2
120 K	93.18
120.13 K	93.3
121.52 K	94.39
122.9 K	95.4
124.27 K	96.48
125.63 K	97.47
127.06 K	98.59
128.55 K	99.75
130 K	100.79
130.03 K	100.83
131.5 K	101.97
132.96 K	103.07
134.45 K	104.19
135.97 K	105.29
137.47 K	106.45
138.97 K	107.56
140 K	108.3
140.45 K	108.68
141.96 K	109.8
143.5 K	110.93
145.03 K	112.09
146.55 K	113.1
148.1 K	114.27
149.72 K	115.49
150 K	115.72
151.43 K	116.75
153.17 K	118.02
154.9 K	119.31
156.62 K	120.56
158.37 K	121.84
160 K	123.1
160.14 K	123.23
161.94 K	124.54
163.76 K	125.92
165.57 K	127.19
167.41 K	128.53
169.28 K	129.9
170 K	130.45
171.14 K	131.27
172.99 K	132.6
174.82 K	134.01
176.68 K	135.37
178.57 K	136.72
180 K	137.8
180.49 K	138.21
182.43 K	139.62
184.37 K	141.02
186.33 K	142.53
188.32 K	143.96
190 K	145.19
190.29 K	145.43
192.26 K	146.89
194.22 K	148.2
196.2 K	149.78
198.21 K	151.32
200 K	152.62
200.21 K	152.77
202.19 K	154.24
204.24 K	155.8
206.37 K	157.27
208.53 K	159.03
210 K	160.09
210.68 K	160.61
212.82 K	162.18
214.94 K	163.84
217.1 K	165.39
219.28 K	167.07
220 K	167.61
221.45 K	168.71
223.6 K	170.37
225.82 K	171.99
228.13 K	173.74
230 K	175.16
230.48 K	175.53
232.81 K	177.33
235.13 K	179.15
237.48 K	180.87
239.92 K	182.64
240 K	182.74
242.39 K	184.45
244.84 K	186.37
247.28 K	188.22
249.7 K	190.03
250 K	190.36
252.15 K	192.06
254.63 K	194.03
257.1 K	195.94
259.55 K	197.81
260 K	198.11
261.98 K	199.73
264.45 K	201.55
266.94 K	203.51
269.42 K	205.41
270 K	206.1
271.88 K	207.63
274.33 K	209.55
276.81 K	211.93
279.31 K	213.91
280 K	214.24
281.79 K	215.77
284.26 K	217.69
286.73 K	219.65
289.21 K	221.51
290 K	222.17
291.73 K	223.31
294.22 K	225.32
296.71 K	227.47
298.15 K	228.55
299.18 K	229.22
300 K	229.99
301.76 K	231.28
304.46 K	233.53
307.14 K	235.53
309.81 K	237.67
310 K	237.81
312.46 K	239.92
315.14 K	241.99
317.84 K	244.2
320 K	245.73
320.53 K	246.19
323.2 K	248.11
325.86 K	250.28
328.54 K	252.68
330 K	253.86
331.25 K	254.96
